Test results reported in PubChem BioAssay (NCI).
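Following 48 hours of exposure in 96-well plates, responses at five concentrations were used to interpolate endpoints linearly. TGI denotes the concentration required for complete inhibition of growth.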

What was measured:
Assay in all cases: NCI tumour cell line growth inhibition, 48 h
[1] = test system: BT-549 breast
[2] = test system: NCI-H23 lung
[3] = test system: HT29 colon
[4] = test system: HCT-15 colon
[5] = test system: SR leukemia
[6] = test system: MCF7 breast
[7] = test system: NCI-H460 lung
[8] = test system: OVCAR-5 ovarian
[9] = test system: UACC-257 melanoma
[10] = test system: T-47D breast
[11] = test system: MDA-MB-435
[12] = test system: PC-3 prostate
[13] = test system: DU-145 prostate
[14] = test system: LOX IMVI melanoma
[15] = test system: CAKI-1 renal
[16] = test system: MDA-N
[17] = test system: SN12C renal
[18] = test system: UACC-62 melanoma
[19] = test system: SK-MEL-2 melanoma
[20] = test system: RXF 393 renal
[21] = test system: A498 renal
[22] = test system: SF-539 CNS
[23] = test system: UO-31 renal
[24] = test system: RPMI-8226 leukemia
[25] = test system: OVCAR-8 ovarian
[26] = test system: HL-60(TB) leukemia
[27] = test system: NCI-H522 lung
[28] = test system: SNB-19 CNS
[29] = test system: 786-0 renal
[30] = test system: SK-MEL-28 melanoma
[31] = test system: OVCAR-3 ovarian
[32] = test system: HOP-92 NSCLC
[33] = test system: MALME-3M melanoma
[34] = test system: OVCAR-4 ovarian
[35] = test system: HS 578T breast
[36] = test system: CCRF-CEM leukemia
[37] = test system: NCI/ADR-RES ovarian
[38] = test system: EKVX NSCLC
[39] = test system: SF-268 CNS
[40] = test system: SW-620 colon
[41] = test system: A549 NSCLC
[42] = test system: SK-OV-3 ovarian
[43] = test system: HOP-62 NSCLC
[44] = test system: U251 CNS
[45] = test system: SK-MEL-5 melanoma
[46] = test system: ACHN renal
[47] = test system: COLO 205 colon
[48] = test system: SF-295 CNS
[49] = test system: HCC-2998 colon
[50] = test system: MOLT-4 leukemia
[51] = test system: SNB-75 CNS
[52] = test system: TK-10 renal
[53] = test system: KM12 colon
[54] = test system: HCT-116 colon
[55] = test system: M14 melanoma
[56] = test system: NCI-H226 lung
[57] = test system: K-562 leukemia
[58] = test system: IGROV1 ovarian
[59] = test system: MDA-MB-231 breast
[60] = test system: SNB-78 CNS
[61] = test system: LXFL 529 NSCLC
[62] = test system: M19-MEL melanoma
[63] = test system: DMS 273 small cell lung
[64] = test system: DMS 114 small cell lung
[65] = test system: DLD-1 colon
[66] = test system: KM20L2 colon
[67] = test system: HOP-18 NSCLC
[68] = test system: XF 498 CNS

Measured: TGI

C[C@@H](C(=O)O)c1ccc(-c2ccccc2)c(F)c1
not listed: [60] | [61] | [62] | [63] | [64] | [65] | [66] | [67] | [68]
> 100 µM: all other assays above

CCOC(=O)NC(=O)c1cn(CCCCCOC(=O)NCCCCCCNC(=O)OCCCCCn2cc(C(=O)NC(=O)OCC)c(=O)[nH]c2=O)c(=O)[nH]c1=O
not listed: [1] | [2] | [5] | [6] | [8] | [10] | [11] | [12] | [13] | [16] | [32] | [35] | [37] | [52] | [59] | [68]
> 100 µM: all other assays above

CN(C)c1ccccc1CC(c1c[nH]c2ccccc12)c1c[nH]c2ccccc12
32.5 µM: [60]
17.8 µM: [3]
25.7 µM: [56]
31.1 µM: [21]
21.1 µM: [34]
21.6 µM: [5]
18.1 µM: [38]
20.6 µM: [46]
29.9 µM: [52]
21.3 µM: [2]
20.4 µM: [64]
31.4 µM: [33]
22 µM: [51]
24 µM: [55]
29.1 µM: [62]
31.5 µM: [68]
24.7 µM: [44]
16.3 µM: [15]
25.4 µM: [29]
25.6 µM: [31]
23.1 µM: [23]
12.7 µM: [17]
30.9 µM: [58]
26.1 µM: [25] | [27]
25.3 µM: [26]
27.8 µM: [28]
24.4 µM: [14] | [48]
33.7 µM: [42]
30.5 µM: [8]
20.2 µM: [20]
22.6 µM: [66] | [49]
11.3 µM: [47]
27.6 µM: [18]
23.3 µM: [43] | [54]
21.7 µM: [50]
30.4 µM: [65]
28.8 µM: [4] | [39] | [45]
29.3 µM: [19]
16 µM: [7]
14.5 µM: [53]
31 µM: [22]
31.8 µM: [9]
32.9 µM: [57]
19.2 µM: [40]
26.6 µM: [36]
22.2 µM: [41]
27.9 µM: [63]
